Patent publication US20220386611A1, “NOVEL HETEROARYL-TRIAZOLE COMPOUNDS AS PESTICIDES” (Bayer Aktiengesellschaft, priority 2019, published 2022)

Assays:
Assay type in all cases: in vivo
[1] = tested on: adult cat fleas (Ctenocephalides felis); assay: Ctenocephalides felis in-vitro contact test, adult cat flea; details: after 48 hours, read-out: efficacy (fleas dead or moribund); for pest or weed control at 1 µg/cm2, 100 g/ha: 1 μg/cm^2 (=100 g/ha); for pest or weed control at 5 µg/cm2, 500 g/ha: 5 μg/cm^2 (=500 g/ha)
How it was run: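 Compound in acetone coated onto glass tube inner walls (900 ppm giving 5 μg/cm^2); after drying, 5-10 adult fleas added and held at room temperature. After 48 h, fleas heat-stressed at 45-50° C for up to 5 min; immotile or uncoordinated fleas scored dead/moribund, giving % efficacy.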

[2] = tested on: adult unfed cat fleas (Ctenocephalides felis); assay: Ctenocephalides felis oral test; details: 48 h
How it was run: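 About 20 adult unfed fleas fed through parafilm on cattle blood containing compound (DMSO concentrate diluted in blood); blood held at 37° C., fleas at room temperature. Mortality in % scored after 2 days (100% = all killed).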

[3] = tested on: adult brown dog ticks (Rhipicephalus sanguineus); assay: Rhipicephalus sanguineus in-vitro contact test with adult brown dog ticks; details: 5 μg/cm^2 (=500 g/ha), after 48 hours, read-out: efficacy (ticks dead or moribund)
How it was run: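 Glass tubes are coated with compound dissolved in acetone, a 900 ppm solution yielding 5 μg/cm^2 on the inner surface. Adult ticks (5-10 per tube) are kept on the dry film at room temperature for 48 h, then those unable to escape 45-50° C heat are counted as dead or moribund.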

[4] = tested on: larvae of the banded cucumber beetle (Diabrotica balteata); assay: Diabrotica balteata spray test; details: 168 h, 100 g/ha (=32 μg/well), after 7 days, wheat seeds, read-out: efficacy (seedlings grown like untreated, uninfected control)
How it was run: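 Germinated wheat seedlings sprayed with compound in acetone/DMF with emulsifier-containing water, then infested with 10-20 Diabrotica balteata larvae per unit. Efficacy scored after 7 days as seedling growth relative to untreated, uninfested control (100%) versus no growth (0%).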

[5] = tested on: fall armyworm larvae (Spodoptera frugiperda); assay: Spodoptera frugiperda spray test; details: in Zea mays, 168 h
Procedure: Spodoptera frukiperda—Spray Test
Solvent: 78.0 parts by weight acetone • 1.5 parts by weight dimethylformamide
Emulsifier: alkylarylpolyglycol ether
To produce a suitable preparation of active compound, 1 part by weight of active compound is mixed with the stated amount of solvents and is diluted with water, containing an emulsifier concentration of 1000 ppm, to the desired concentration. Further test concentrations are prepared by dilution with emulsifier containing water.
Maize (Zea mays) leaf sections are sprayed with a preparation of the active ingredient of the desired concentration. Once dry, the leaf sections are infested with fall armyworm larvae (Spodoptera frugiperda).
After 7 days mortality in % is determined. 100% means all caterpillars have been killed and 0% means none of the caterpillars have been killed.

[6] = tested on: Aedes aegypti strain MONHEIM; assay: Aedes aegypti test (AEDSAE surface treatment & contact assay); details: 24 hours after contact, read-out: efficacy (mortality); for mortality at 4 mg/m2: surface concentration 4 mg/m^2, 30 minutes exposure; for mortality at 20 mg/m2: surface concentration 20 mg/m^2, 30 minutes exposure
How it was run: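 Compound dissolved in acetone (2 mg/ml) with 2000 ppm rapeseed oil methyl ester, then dried onto a glazed tile. Adult A. aegypti (MONHEIM strain) exposed to the surface for 30 min. Percent mortality scored 24 h after contact.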

[7] = tested on: Musca domestica strain WHO-N; assay: Musca domestica test (MUSCDO surface treatment & contact assay); details: 24 hours after contact, read-out: efficacy (mortality); for mortality at 20 mg/m2: surface concentration 20 mg/m^2, 30 minutes exposure
Procedure: Musca domestica Test (MUSCDO Surface Treatment & Contact Assay)
Solvent: Aceton+2000 ppm rapeseed oil methyl ester (RME)
In order to produce a sufficient, active ingredient containing solution it is necessary to solve the test compound in the solvent-mix (acetone at 2 mg/ml/RME 2000 ppm). This solution is pipetted onto a glazed tile and after evaporation of the acetone, adult flies of the species Musca domestica strain WHO-N are placed onto the dried surface. The exposure time is 30 minutes. Mortality in percent (%) is determined 24 hours after contact of the insects to the treated surface. 100% mortality means that all tested insects are dead, whereas 0% means that no insect died.

| SMILES | pest or weed control at 1 µg/cm2, 100 g/ha [1] [%] | mortality at 100 ppm [2] [%] | pest or weed control at 5 µg/cm2, 500 g/ha [3] [%] | pest or weed control at 32 µg/disc, 100 g/ha [4] [%] | mortality at 100 g/ha [5] [%] | mortality at 4 mg/m2 [6] [%] | mortality at 20 mg/m2 [6] [%] | mortality at 20 mg/m2 [7] [%] | pest or weed control at 5 µg/cm2, 500 g/ha [1] [%] | mortality at 4 mg/m2 ([7]; surface concentration 4 mg/m^2, 30 minutes exposure) [%] |
| --- | --- | --- | --- | --- | --- | --- | --- | --- | --- | --- |
| CC(NC(=O)c1cc(C(F)(F)F)cc(C(F)(F)F)c1)c1nc(Cl)nn1-c1ncccn1 (stereo not shown) [Example I-002] | 100 | 100 | 80 | 100 | 100 | 80 to 100 | 80 to 100 | 80 to 100 |  |  |
| CC(NC(=O)c1cc(C(F)(F)F)cc(C(F)(F)F)c1)c1nc(Br)nn1-c1ncccn1 (stereo not shown) [Example I-010] |  | 100 | 100 | 80 | 100 |  | 80 to 100 | 80 to 100 | 80 |  |
| CC(NC(=O)c1cc(C(F)(F)F)cc(C(F)(F)F)c1)c1nc(I)nn1-c1ncccn1 (stereo not shown) [Example I-021] | 100 | 100 | 80 | 100 | 100 | 80 to 100 | 80 to 100 | 80 to 100 | 100 | 80 to 100 |
